Key:
Type in all cases: in vivo, Sprague-Dawley rats
[1] = system: medial frontal cortex injury; test: Example 3: lesion reconstruction (lesion volume); conditions: tapered withdrawal, injured (TWI)
Description: Male Sprague-Dawley rats received either medial frontal cortex injury or sham surgery. Injections were given 1 and 6 hours post-injury, and every 24 hours for 7 days. Treatment groups (n=8) encompassed injured (I) and sham (S) acute withdrawal (AW), tapered withdrawal (TW) and vehicle (V) treatments. TW injections were progressively halved over the final two treatments. Behavioral testing was conducted post-surgery, mid- and post-withdrawal. Activity boxes were used to investigate vertical movements and exploration: Sensory neglect and anxiety behaviors were also analyzed. Brain harvesting was performed at 8 days or 3 weeks post-injury. Perfused tissue sections were analyzed for lesion volume and immunohistochemical response. Fresh brain tissue was flash frozen in chilled 2-methyl butane, and then homogenized for Western blot analysis.

[2] = system: bilateral contusions of the medial prefrontal cortex; test: Example 1: Morris water maze (MWM) task after TBI
Description: Male Sprague-Dawley rats (300 g) were housed individually in wire cages and kept on a reverse light-dark cycle (0800-2000 h). […] All procedures involving animals conformed to guidelines set forth in the Guide for the Care and Use of Laboratory Animals (U.S. Department of Health and Human Services, Pub no. 85-23, 1985) and were approved by the Emory University Institutional Animal Care and Use Committee.
Bilateral contusions of the medial prefrontal cortex were created by a pneumatic impactor device as previously described. Briefly, rats were given anesthetized with ketamine/xylazine (90 mg/kg; 10 mg/kg) and placed in a stereotaxic apparatus. A craniectomy (diameter 6 mm) was made over the midline of the prefrontal cortex with its center 1.5 mm AP to bregma. After removal of the bone, the tip of the impactor (diameter 5 mm) was moved to +3.0 mm AP; 1.0 mm ML (from bregma), and checked for adequate clearance. Trauma was produced by pneumatically activating the piston to impact −2.0 mm DV (from dura) at a velocity of 3 m/s with a brain contact time of 0.5 seconds.
Control animals received injections of vehicle at similar time-points. Animals were coded with regard to surgery and treatment to prevent experimenter bias during behavioral testing and histological examination.
Experienced individuals who were blind to treatment conditions of the study conducted all histological and behavioral analyses. All data were tested for normality and homoschedasticity before being analyzed by parametric analysis of variance (ANOVA). MWM results were analyzed using separate mixed-factorial (4 groups×5 days) analysis of variance (ANOVA) on each of the two 5-day testing periods (acquisition and retention respectively). Results of the BSN task were analyzed using the mixed-factorial ANOVA (4 groups×2 post-injury trials). Histological comparisons on mean densitometry recordings, area measurements, and cell counts were made using a one-way ANOVA. All between-group comparisons were made using multiple Tukey post-hoc tests (p<0.05) when the overall ANOVA was significant ([…]) between groups. Pearson r coefficients were calculated to determine whether significant correlations could be detected between histological (e.g., lesion size and cellular density) and behavioral parameters (e.g., acquisition and retention of the MWM task and measures of sensory neglect).
Beginning one week after surgery, spatial learning ability was assessed in the Morris water maze (MWM) task described previously. […] Animals were placed in the pool (nose facing the pool-wall) at one of four randomly determined starting positions (e.g.: N, S, E, W). […] Swim speed measures were recorded daily in order to delineate motor dysfunction from learning impairment.

[3] = system: medial frontal cortex (MFC) injury or sham; test: Example 4: somatosensory neglect of the forepaws
Source text: 60 male Sprague-Dawley rats weighing 290-310 g at the time of injury were used in this experiment. Food and water were provided ad libidum before and after surgery. Animals were handled and weighed daily from their arrival, seven days pre-surgery, to brain extraction three weeks post-surgery. Animals were handled in squads of 12, with n=10 per experimental condition. All animal procedures were approved by the Emory University Animal Care and Use Committee, Protocol #131-2002.
Isofluorane anesthesia was induced for four minutes and 45 seconds at 5% and maintained at 2.5%. Normal body temperature was maintained with a surgical heating pad placed beneath the sterile dressings. The scalp incision area was shaved and sterilized with iodine and isopropanol. A midline incision was made along the scalp and the fascia cleared to expose the surface of the skull. Medial, lateral, and dorsal stereotaxic coordinates were determined at bregma, and a 5-7 mm diameter bilateral craniotomy was performed mid-sagitally, 3 mm anterior to bregma. […] Sutures were used to close the incision after bleeding ceased. Animals were placed in individual heated, clean recovery cages until they awakened, and were returned to clean individual home cages with accessible moistened food pellets. Sham animals were anesthetized, and an incision was made at the top of the head. The fascia was cleared to expose bregma, then the incision was sutured closed. Sham surgeries were matched to lesion surgeries for all experimental conditions.
Sham (S) and lesion (L) animals were randomly assigned to one of three treatment groups: vehicle (VS, VL), acute withdrawal (AWS, AWL), and tapered withdrawal (TWS, TWL). […] Tapering was induced as halved dosages over the last two days of treatment. Dilutions for TW treatments were made with HBC stock. All injections were administered intraperitoneally at one hour post-injury, and subcutaneously at six hours post-injury and every 24 hours through the end of the treatment cycle. Five sets of 12 animals each were used, for a total n=10 for each experimental group over the entire experiment. Of these animals, all were used to acquire behavioral data, four samples were used for protein analysis, and six samples were used for histological analysis for each test condition.
Random order, blinded testing occurred under red light in a quiet environment at one and seven days post-withdrawal, one hour after locomoter activity testing. 1.3 cm diameter circular labels were placed on the left forepaw and the rat placed in the clear plexiglass testing box. The latency required for each rat to remove the sticker with its mouth was recorded, with maximum test duration of two minutes. Each animal was tested three times, with a rest period of two minutes between trials. The testing box was cleaned with 70% ethanol and dried between trials.
All results were expressed as the mean plus or minus the standard error of the mean. Statistical significance was set at p<0.05 for two-tailed tests, and data were analyzed using one-way analysis of variance (ANOVA) followed by LSD post hoc tests. F-values are presented as a preface to post-hoc analysis with all degrees of freedom for Western blotting at (5,18) and for behavior at (5,26).

CC(=O)[C@H]1CC[C@H]2[C@@H]3CCC4=CC(=O)CC[C@]4(C)[C@H]3CC[C@]12C [progesterone, pregn-4-ene-3,20-dione]
lesion volume [1]: smallest lesion volume | MWM spatial learning performance, second 5-day trial block (retention) ([2]; 4 mg/kg in peanut oil, 5 days (LP5)): improved spatial learning performance | MWM spatial learning performance, initial 5-day acquisition phase ([2]; 4 mg/kg in peanut oil, LP3 and LP5 (all injured groups)): deficits in spatial learning performance as compared to control animals | thigmotaxic (wall-hugging) swim patterns in MWM ([2]; 4 mg/kg, 5 days (LP5), last 2 days of second phase of MWM testing): reduction of thigmotaxic behavior | swim speed in MWM ([2]; 4 mg/kg, LP3 and LP5, any day of testing): no between-group differences on swim speed measurements | somatosensory neglect (latency to remove sticker) ([3]; 16 mg/kg in […] HBC, tapered withdrawal, lesion (TWL), one day and one week post-withdrawal): deficiencies were decreased compared to VL and AWL | somatosensory neglect (latency to remove sticker) ([3]; 16 mg/kg, acute withdrawal, lesion (AWL), one day and one week post-withdrawal): AWL and VL did not display differences | somatosensory neglect (latency to remove sticker) ([3]; 16 mg/kg, acute withdrawal, sham (AWS), one day post-withdrawal): elevated sensory deficiencies compared to the TWS and VS groups | somatosensory neglect (latency to remove sticker) ([3]; 16 mg/kg, acute withdrawal, sham (AWS), one week post-withdrawal): these differences were no longer evident | somatosensory neglect (latency to remove sticker) ([3]; tapered withdrawal, sham (TWS), one day and one week post-withdrawal): TWS and VS showed no differences
